In patent US12351574B2, “Selective ligands for modulation of GIRK channels” (Northeastern University, priority 2018, dated 2025):

Molecular target: T1, GIRK1/4(VT-IV) (Homo sapiens, UniProt P48544+P48549, T94V/V92I)
T1 construct: expressed in transfected cells; host or cells: Xenopus laevis oocytes (cRNA injection)
T1 sequence (P48549 1-501): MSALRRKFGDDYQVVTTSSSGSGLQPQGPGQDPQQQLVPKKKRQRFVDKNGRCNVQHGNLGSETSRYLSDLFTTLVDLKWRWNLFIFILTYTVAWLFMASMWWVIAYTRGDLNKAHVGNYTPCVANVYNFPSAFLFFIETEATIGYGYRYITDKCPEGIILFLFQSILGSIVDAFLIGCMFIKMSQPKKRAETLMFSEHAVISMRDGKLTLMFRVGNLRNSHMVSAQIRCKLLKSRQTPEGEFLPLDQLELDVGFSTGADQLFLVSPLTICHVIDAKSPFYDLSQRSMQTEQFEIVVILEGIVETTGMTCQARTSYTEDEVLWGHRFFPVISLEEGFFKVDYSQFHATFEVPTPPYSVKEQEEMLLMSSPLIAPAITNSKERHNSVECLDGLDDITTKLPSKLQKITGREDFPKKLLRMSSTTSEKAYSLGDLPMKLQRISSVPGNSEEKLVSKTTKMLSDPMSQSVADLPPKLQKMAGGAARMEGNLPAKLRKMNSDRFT
T1 sequence (P48544 1-419 V92I/T94V): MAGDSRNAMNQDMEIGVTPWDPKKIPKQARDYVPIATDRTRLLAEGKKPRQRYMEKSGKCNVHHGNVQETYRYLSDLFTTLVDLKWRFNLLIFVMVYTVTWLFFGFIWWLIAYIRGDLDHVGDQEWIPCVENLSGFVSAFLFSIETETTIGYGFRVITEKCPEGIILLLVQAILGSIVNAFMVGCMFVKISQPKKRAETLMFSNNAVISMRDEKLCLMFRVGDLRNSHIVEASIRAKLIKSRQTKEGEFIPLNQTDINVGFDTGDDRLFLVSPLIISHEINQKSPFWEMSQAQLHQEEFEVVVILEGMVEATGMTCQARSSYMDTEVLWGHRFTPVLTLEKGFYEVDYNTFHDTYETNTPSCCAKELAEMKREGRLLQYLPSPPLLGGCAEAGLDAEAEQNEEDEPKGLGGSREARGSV
Test: TEVC in Xenopus oocytes, double mutant GIRK1/4(VT-IV)
Type: cell-based
Conditions: GIRK1/4(VT-IV) double mutant
Source text: Molecular biology: For Xenopus oocyte expression, human GIRK1 and human GIRK4 cDNAs were subcloned into pGEMHE. For mammalian expression, human GIRK1 and human GIRK4 cDNAs were subcloned into pcDNA3 and pcDNA3.1/V5-His B, respectively (Invitrogen). Mouse GIRK2 cDNA was subcloned in the dual-function vector, pXoom. Point mutations were introduced using a standard Pfu-based mutagenesis technique according to the QuikChange protocol (Agilent). Mutations were verified by sequencing.
Electrophysiology of oocytes: Whole-oocyte currents were measured by conventional two-electrode voltage clamp (TEVC) with a GeneClamp 500 amplifier (Axon Instruments). Agarose cushion microelectrodes were filled with 1.5% (w/v) agarose in 3 M KCl and were used with resistances between 0.1 and 1.5 megaohms. […] Barium-sensitive basal currents from both groups, 1) Vehicle, 2) single concentration at 10 μM and 3) multiple concentrations of ML297 or GAT compounds in the presence of HK solution, were assessed at −80 mV using TEVC. Barium-sensitive currents were normalized to average basal current in the vehicle solutions. The HK solution contained the following: 96 mM KCl, 1 mM NaCl, 1 mM MgCl2, 5 mM KOH/HEPES, pH 7.4. The barium solution consisted of HK+10 mM BaCl2. Five to ten oocytes from the same batch (same frog) were recorded for each group, and the experiments were repeated in at least four batches. Data acquisition and analysis were carried out using pClamp9 (Molecular Devices) and OriginPro (Microcal) software.
To test these computational predictions, the inventors mutated each or both of the two M1 key wild-type GIRK4 subunit residues to the corresponding GIRK2 residues (GIRK4-V92I, GIRK4-T94V, GIRK4-V92I/T94V or GIRK4-dm) and vice-versa the GIRK2 residues to the corresponding GIRK4 ones (GIRK2-I97V, GIRK2-V99T, GIRK2-I97V/V99T or GIRK2-dm) (FIG. 35). […]

Cc1cc(NC(=O)Nc2ccc(Br)s2)n(-c2ccccc2)n1 [GAT1508, 1-(5-bromothiophen-2-yl)-3-(3-methyl-1-phenyl-1H-pyrazol-5-yl)urea]
EC50: 550 ± 110 nM | EMAX: 1.76±0.03 | Emax (read-out: EMAX, % of the control GIRK1/2): 75%
